The values below come from patent publication US11731970B1, “Pyrrolo[2,3-b]quinoline compounds as antibacterial agents” (KING FAISAL UNIVERSITY, priority 2023, dated 2023).

≈ marks a conversion by molar mass, not a printed value. Read-outs that look alike come from different tables or passages of the source.

The subject of test [1] is Staphylococcus epidermidis. Description: Antibacterial MIC, CLSI M07-A10 dilution. The class given is cell-based.
Test [2] concerns Escherichia coli MTCC 443. Description: Antibacterial MIC, CLSI M07-A10 dilution. The class given is cell-based. The conditions noted are these: MTCC443.
The test system of test [3] is Mycobacterium tuberculosis H37Rv strain. Description: Anti-tubercular alamar blue microplate MIC. The class given is cell-based. The conditions noted are these: 168 h, M. tuberculosis H37Rv, seven days at 37° C., read-out: anti-mycobacterial activity (MIC). (In general: The colour change of resazurin is a common sign of viable cells or microbes.)
Test [4] relates to Bacillus subtilis MTCC 441. As to the kind of experiment: Antibacterial MIC, CLSI M07-A10 dilution. The class given is cell-based. The conditions noted are these: MTCC441.
The test system of test [5] is Enterococcus faecium ATCC 51559 (VRE resistant). As to the kind of experiment: Antibacterial MIC, CLSI M07-A10 dilution. The class given is cell-based.
Test [6] relates to Klebsiella pneumonia MTCC 618. Description: Antibacterial MIC, CLSI M07-A10 dilution. The class given is cell-based. The following applies: Klebsiella pneumoniae, MTCC618.
Test [7] deals with Pseudomonas aeruginosa MTCC 741. Description: Antibacterial MIC, CLSI M07-A10 dilution. The class given is cell-based. The following applies: MTCC741.
The target in another test is T1, DNA gyrase from E. coli (Escherichia coli, UniProt P0AES4+P0AES6).
T1 construct: purchased Inspiralis
Description: E. coli DNA gyrase inhibition (Inspiralis assay). The class given is biochemical. As for the experimental part: Inhibitory potencies were investigated utilizing the Inspiralis assay on streptavidin-coated 96-well microtiter plates. First, the plates were rehydrated with buffer (20 mM Tris-HCl with pH 7.6, 0.01% w/v BSA, 0.05% v/v Tween 20, 137 mM NaCl) and the biotinylated oligonucleotide was then immobilized. After washing off the unbound oligonucleotide, the enzyme test was performed. The reaction volume of 30 μL in buffer (35 mM Tris×HCl with pH 7.5, 4 mM MgCl2, 24 mM KCl, 2 mM DTT, 1.8 mM spermidine, 1 mM ATP, 6.5% w/v glycerol, 0.1 mg/mL albumin) contained 1.5 U of DNA gyrase from E. coli, 0.75 μg of relaxed pNO1 plasmid, and 3 μL solution of the inhibitor in 10% DMSO and 0.008% Tween 20. Reaction solutions were incubated at 37° C. for 30 min. After that, the TF buffer (50 mM NaOAc with pH 5.0, 50 mM NaCl and 50 mM MgCl2) was added to terminate the enzymatic reaction. After additional incubation for 30 min at rt, during which biotinoligonucleotide-plasmid triplex was formed, the unbound plasmid was washed off using TF buffer and SybrGOLD in T10 buffer (10 mM Tris HCl with pH 8.0 and 1 mM EDTA) was added. The fluorescence was measured with a microplate reader (BioTek Synergy H4, excitation: 485 nm, emission: 535 nm). Initial screening was done at 100 or 10 μM concentration of inhibitors. […] GraphPad Prism software was used to calculate the IC50 values. […]

Test [8] concerns Staphylococcus aureus ATCC 29213. Description: Antibacterial MIC, CLSI M07-A10 dilution. The class given is cell-based. The following applies: ATCC29213.
The subject of test [9] is Enterococcus faecium ATCC 35667. Description: Antibacterial MIC, CLSI M07-A10 dilution. The class given is cell-based. The following applies: ATCC35667.
For test [10], the system named is Staphylococcus aureus ATCC BAA-1556 (MERSA resistant). Description: Antibacterial MIC, CLSI M07-A10 dilution. The class given is cell-based. The conditions noted are these: ATCCBAA1556.

T1 sequence (P0AES4 whole entry, one chain of several): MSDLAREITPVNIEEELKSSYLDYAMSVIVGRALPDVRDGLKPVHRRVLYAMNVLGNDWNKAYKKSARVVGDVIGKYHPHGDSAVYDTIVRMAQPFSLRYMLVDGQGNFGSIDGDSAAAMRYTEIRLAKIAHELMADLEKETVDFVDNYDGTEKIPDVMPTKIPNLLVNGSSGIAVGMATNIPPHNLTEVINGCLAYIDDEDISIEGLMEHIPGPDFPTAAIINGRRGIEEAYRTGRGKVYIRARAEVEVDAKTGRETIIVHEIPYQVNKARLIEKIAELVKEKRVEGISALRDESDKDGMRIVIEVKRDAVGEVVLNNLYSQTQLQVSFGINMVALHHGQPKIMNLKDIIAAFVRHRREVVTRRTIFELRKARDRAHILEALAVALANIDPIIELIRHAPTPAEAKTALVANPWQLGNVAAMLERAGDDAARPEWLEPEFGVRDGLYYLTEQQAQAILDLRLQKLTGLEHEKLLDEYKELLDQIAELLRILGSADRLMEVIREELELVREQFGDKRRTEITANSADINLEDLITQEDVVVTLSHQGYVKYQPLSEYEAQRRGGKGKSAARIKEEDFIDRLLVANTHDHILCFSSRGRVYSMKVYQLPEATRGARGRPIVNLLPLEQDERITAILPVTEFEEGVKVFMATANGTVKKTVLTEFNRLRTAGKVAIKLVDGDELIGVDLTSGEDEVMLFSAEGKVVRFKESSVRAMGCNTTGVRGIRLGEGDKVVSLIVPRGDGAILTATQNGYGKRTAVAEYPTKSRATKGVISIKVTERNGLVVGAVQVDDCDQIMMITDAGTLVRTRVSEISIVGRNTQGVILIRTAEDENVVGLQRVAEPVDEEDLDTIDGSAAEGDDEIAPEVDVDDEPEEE

Take `CCCCCN(C)Cc1cc(C(=O)O)ccc1-c1cc2cc3cc(F)cc(NC)c3nc2[nH]1` [Compound 6, 4-(6-fluoro-8-(methylamino)-1H-pyrrolo[2,3-b]quinolin-2-yl)-3-((methyl(pentyl)amino)methyl)benzoic acid]: the MIC (usually the lowest concentration that inhibits growth of the organism) in test [1] (read-out: MIC) was found to be 1 µg/mL (≈ 2.23 µM); in [2] (Escherichia coli MTCC 443, read-out: MIC) it was 4 µg/mL (≈ 8.92 µM); in [3], 4 µg/mL (≈ 8.92 µM); in [4] (Bacillus subtilis MTCC 441, read-out: MIC), 0.5 µg/mL (≈ 1.11 µM); in test [5] (Enterococcus faecium ATCC 51559 (VRE resistant), read-out: MIC), 1 µg/mL (≈ 2.23 µM); in [6] (Klebsiella pneumonia MTCC 618, read-out: MIC), 1 µg/mL (≈ 2.23 µM). For the same molecule, the MIC is 0.75 µg/mL (≈ 1.67 µM) in test [7] (Pseudomonas aeruginosa MTCC 741, read-out: MIC); 0.75 µg/mL (≈ 1.67 µM) in [8]; 0.75 µg/mL (≈ 1.67 µM) in [9] (Enterococcus faecium ATCC 35667, read-out: MIC); 0.75 µg/mL (≈ 1.67 µM) in test [10]. Further, the IC50 (usually the point on the concentration scale where inhibition reaches its midpoint) on DNA gyrase from E. coli was determined as 25 nM.
Regarding `CN[C@H](CC(C)C)C(=O)N[C@H]1C(=O)N[C@@H](CC(N)=O)C(=O)N[C@H]2C(=O)N[C@H]3C(=O)N[C@H](C(=O)N[C@H](C(=O)O)c4cc(O)cc(O)c4-c4cc3ccc4O)[C@H](O)c3ccc(c(Cl)c3)Oc3cc2cc(c3O[C@@H]2O[C@H](CO)[C@@H](O)[C@H](O)[C@H]2O[C@H]2C[C@](C)(N)[C@H](O)[C@H](C)O2)Oc2ccc(cc2Cl)[C@H]1O` [Vancomycin, reference compound], the MIC in test [1] is 1 µg/mL (≈ 0.69 µM); in test [2] (Escherichia coli), above 128 µg/mL; in [4] (Bacillus subtilis) it was 0.5 µg/mL (≈ 0.345 µM); in test [5] (Enterococcus faecium), above 128 µg/mL; in test [6] it was above 128 µg/mL; in test [7] (Pseudomonas aeruginosa), above 128 µg/mL. Moreover, the MIC in test [9] (Enterococcus faecium) is 0.5 µg/mL (≈ 0.345 µM).
